{
  "source": "patent US6583106B2",
  "about": "“Monohydric alcohol derived urethanes and their use in cosmetic formulations” (Alzo International, Inc., priority 1997, dated 2003)",
  "data": [
    {"test": "Mono- and diester stability study (acid value after heat/reflux and pH variation)", "assay_type": "physicochemical", "details": "before treatment; A.O.C.S. T.M. #Cd 3a-63", "description": "(§1) The following stability study was conducted to determine the structural stability of dimeric urethane compounds according to the present invention compared to mono- and diesters under conditions of pH and thermal variation. Because the decomposition products of the mono- and diesters are alcohol and acid, the degree of decomposition may be accurately determined by measuring the acid value. The measurable decomposition product of the urethane compound is alcohol, which is accurately measured by determining the hydroxyl value.\nIII. Procedure for Determining Mono- or Diester Stability\nThe following steps were performed on each ester sample:\n(2) Into three ground glass Erlenmeyer flasks, weigh a 20 g sample of the ester.\n(3) Into each flask, pipette 50 ml of a neutralized (to phenolpthalein end point) Solution of 70% Isopropanol in water. Boiling stones are added.\n(4) Connect flask A to a 4-5 ft. Reflux condenser and heat so that it refluxes 1 ft. High (to approximately 80-90° C.). After connecting flasks A, B and C, proceed to step (7).\n(5) Add 10% Aq. Hcl solution to adjust pH of solution in flask B to pH=2.5-3.5. See step (4).\n(6) Add 20% Aq. KOH Solution to adjust pH of solution in Flask C to pH=13-14. See step (4).\n(8) For each flash, A, B and C, disconnect condenser. Pour Alcoholic solution into wide diameter beaker (A, B and C). Add spin bar. […]", "units": {"ACID V INITIAL": "mg KOH/g"}, "values": [
      {"molecule": "CC(C)OC(=O)CCCCC(=O)OC(C)C", "note": "[DIA, Diisopropyl adipate]", "ACID V INITIAL": 0.26},
      {"molecule": "Diisopropyl dilinoleate [DID]", "ACID V INITIAL": 0.32}
    ]},
    {"test": "Urethane stability study (hydroxyl value after heat/reflux and pH variation)", "assay_type": "physicochemical", "details": "before treatment; A.O.C.S. hydroxyl value method", "description": "as §1\nIV. Procedure for Urethane Stability\nThe following steps were performed on each urethane sample:\n(1) Run hydroxyl value test.\n(2) Follow steps 2-8 for mono- and diester (above).\n(3) Run hydroxyl value test on solution in beaker A.\n(4) Perform step 10, from above.\n(5) Run hydroxyl value test on solution in Beaker B and Beaker C.\nUnder conditions of this study, that is,\n“A”: Product in alcoholic/water solution, heat\n“B”: Product in alcoholic/water solution, heat, pH=2.5-3.5\n“C”: Product in alcoholic/water solution, heat, pH=13-14", "units": {"HYDROXYL V INITIAL": "mg KOH/g"}, "values": [
      {"molecule": "CCCCC(CC)COC(=O)NCC1(C)CC(NC(=O)OCC(CC)CCCC)CC(C)(C)C1", "note": "(stereo not drawn) [Monoderm I-8, 2-ethyl hexanol dimer with IPDI]", "HYDROXYL V INITIAL": 10.3},
      {"molecule": "Isocetyl alcohol dimer with IPDI [Monoderm I-16]", "HYDROXYL V INITIAL": 7.3},
      {"molecule": "Isostearyl alcohol dimer with IPDI [Monoderm I-18]", "HYDROXYL V INITIAL": 5.3},
      {"molecule": "Octyl dodecanol dimer with IPDI [Monoderm I-20]", "HYDROXYL V INITIAL": 16.1}
    ]}
  ]
}
